Source: article PMC9609070 (ACS Omega, 2022)
Like-named read-outs stand apart in the source and are kept apart here.

Columns and labels:
[1] = Preferential solvation analysis by inverse Kirkwood–Buff integrals; type: physicochemical; details: NMP+water, T=298.15 K
[2] = cited from earlier work
[3] = Hildebrand solubility parameter of meloxicam; type: physicochemical; details: expected from the solubility maximum in neat NMP; T=298.15 K
[4] = neat water, x1=0.000, cited from earlier work
[5] = neat water, x1=0.000; Thm=303.0 K; cited from earlier work
[6] = cited from earlier work; remark: listed apart in the source
[7] = Apparent thermodynamic functions of dissolution; type: physicochemical; details: Thm=303.0 K
[8] = neat water, x1=0.000, cited from earlier work; remark: listed apart in the source
[9] = calculated by Fedors' groups contribution method; cited from earlier work

100 δx1,3 (preferential solvation parameter by NMP) ([1]; x1=0.95): 0.69
D (derivative of Gibbs energy of transfer vs x1) ([1]; x1=0.95): –8.41 kJ·mol^–1
G1,3 (Kirkwood–Buff integral) ([1]; x1=0.95): –184.2 cm^3·mol^–1
G2,3 (Kirkwood–Buff integral) ([1]; x1=0.95): –467.3 cm^3·mol^–1
100 δx1,3 (preferential solvation parameter by NMP) ([1]; x1=1.00): 0.00
D (derivative of Gibbs energy of transfer vs x1) ([1]; x1=1.00): –9.81 kJ·mol^–1
G1,3 (Kirkwood–Buff integral) ([1]; x1=1.00): –181.8 cm^3·mol^–1
G2,3 (Kirkwood–Buff integral) ([1]; x1=1.00): –563.4 cm^3·mol^–1
Hildebrand solubility parameter δ3, solubility-based [3]: lower than 23.6 MPa^1/2
TΔsolnS° ([7]; NMP+water, x1=0.100): 0.52 kJ·mol^–1
ΔsolnG° (apparent Gibbs energy of dissolution) ([7]; NMP+water, x1=0.100): 27.40 kJ·mol^–1
ΔsolnH° (apparent enthalpy of dissolution) ([7]; NMP+water, x1=0.100): 27.92 kJ·mol^–1
ΔsolnS° (apparent entropy of dissolution) ([7]; NMP+water, x1=0.100): 1.71 J·mol^–1·K^–1
TΔsolnS° ([7]; NMP+water, x1=0.200): 2.55 kJ·mol^–1
ΔsolnG° (apparent Gibbs energy of dissolution) ([7]; NMP+water, x1=0.200): 22.34 kJ·mol^–1
ΔsolnH° (apparent enthalpy of dissolution) ([7]; NMP+water, x1=0.200): 24.89 kJ·mol^–1
ΔsolnS° (apparent entropy of dissolution) ([7]; NMP+water, x1=0.200): 8.41 J·mol^–1·K^–1
TΔsolnS° ([7]; NMP+water, x1=0.300): 3.08 kJ·mol^–1
ΔsolnG° (apparent Gibbs energy of dissolution) ([7]; NMP+water, x1=0.300): 18.38 kJ·mol^–1
ΔsolnH° (apparent enthalpy of dissolution) ([7]; NMP+water, x1=0.300): 21.46 kJ·mol^–1
ΔsolnS° (apparent entropy of dissolution) ([7]; NMP+water, x1=0.300): 10.18 J·mol^–1·K^–1
TΔsolnS° ([7]; NMP+water, x1=0.400): 2.09 kJ·mol^–1
ΔsolnG° (apparent Gibbs energy of dissolution) ([7]; NMP+water, x1=0.400): 15.31 kJ·mol^–1
ΔsolnH° (apparent enthalpy of dissolution) ([7]; NMP+water, x1=0.400): 17.40 kJ·mol^–1
ΔsolnS° (apparent entropy of dissolution) ([7]; NMP+water, x1=0.400): 6.89 J·mol^–1·K^–1
TΔsolnS° ([7]; NMP+water, x1=0.500): 1.77 kJ·mol^–1
ΔsolnG° (apparent Gibbs energy of dissolution) ([7]; NMP+water, x1=0.500): 13.00 kJ·mol^–1
ΔsolnH° (apparent enthalpy of dissolution) ([7]; NMP+water, x1=0.500): 14.78 kJ·mol^–1
ΔsolnS° (apparent entropy of dissolution) ([7]; NMP+water, x1=0.500): 5.85 J·mol^–1·K^–1
TΔsolnS° ([7]; NMP+water, x1=0.600): 6.45 kJ·mol^–1
ΔsolnG° (apparent Gibbs energy of dissolution) ([7]; NMP+water, x1=0.600): 11.42 kJ·mol^–1
ΔsolnH° (apparent enthalpy of dissolution) ([7]; NMP+water, x1=0.600): 17.87 kJ·mol^–1
ΔsolnS° (apparent entropy of dissolution) ([7]; NMP+water, x1=0.600): 21.28 J·mol^–1·K^–1
TΔsolnS° ([7]; NMP+water, x1=0.700): 15.75 kJ·mol^–1
ΔsolnG° (apparent Gibbs energy of dissolution) ([7]; NMP+water, x1=0.700): 10.45 kJ·mol^–1
ΔsolnH° (apparent enthalpy of dissolution) ([7]; NMP+water, x1=0.700): 26.20 kJ·mol^–1
ΔsolnS° (apparent entropy of dissolution) ([7]; NMP+water, x1=0.700): 51.98 J·mol^–1·K^–1
TΔsolnS° ([7]; NMP+water, x1=0.800): 14.58 kJ·mol^–1
ΔsolnG° (apparent Gibbs energy of dissolution) ([7]; NMP+water, x1=0.800): 9.52 kJ·mol^–1
ΔsolnH° (apparent enthalpy of dissolution) ([7]; NMP+water, x1=0.800): 24.10 kJ·mol^–1
ΔsolnS° (apparent entropy of dissolution) ([7]; NMP+water, x1=0.800): 48.13 J·mol^–1·K^–1
TΔsolnS° ([7]; NMP+water, x1=0.900): 10.89 kJ·mol^–1
ΔsolnG° (apparent Gibbs energy of dissolution) ([7]; NMP+water, x1=0.900): 8.60 kJ·mol^–1
ΔsolnH° (apparent enthalpy of dissolution) ([7]; NMP+water, x1=0.900): 19.49 kJ·mol^–1
ΔsolnS° (apparent entropy of dissolution) ([7]; NMP+water, x1=0.900): 35.93 J·mol^–1·K^–1
TΔsolnS° ([7]; neat NMP, x1=1.000): 13.06 kJ·mol^–1
ΔsolnG° (apparent Gibbs energy of dissolution) ([7]; neat NMP, x1=1.000): 7.99 kJ·mol^–1
ΔsolnH° (apparent enthalpy of dissolution) ([7]; neat NMP, x1=1.000): 21.05 kJ·mol^–1
ΔsolnS° (apparent entropy of dissolution) ([7]; neat NMP, x1=1.000): 43.10 J·mol^–1·K^–1
Structure (SMILES): Cc1cnc(NC(=O)C2=C(O)c3ccccc3S(=O)(=O)N2C)s1 [Meloxicam, 4-hydroxy-2-methyl-N-(5-methyl-2-thiazolyl)-2H-1,2-benzothiazine-3-carboxamide-1,1-dioxide]
Solubility-increasing effect ([2]; Carbitol as cosolvent): 1144 times
Solubility-increasing effect ([2]; N,N-dimethylformamide (DMF) as cosolvent): 11,233 times
Solubility-increasing effect ([2]; N-methylformamide (NMF) as cosolvent): 1399 times
Solubility-increasing effect ([2]; dimethyl sulfoxide (DMSO) as cosolvent): 6956 times
Activity coefficient (γ3) ([4]; T=293.15 K): 2396
Activity coefficient (γ3) ([4]; T=298.15 K): 2708
Activity coefficient (γ3) ([4]; T=303.15 K): 3055
Activity coefficient (γ3) ([4]; T=308.15 K): 3376
Activity coefficient (γ3) ([4]; T=313.15 K): 3755
TΔsolnS° [5]: –26.66 kJ·mol^–1
ΔsolnG° (apparent Gibbs energy of dissolution) [5]: 34.35 kJ·mol^–1
ΔsolnH° (apparent enthalpy of dissolution) [5]: 7.69 kJ·mol^–1
ΔsolnS° (apparent entropy of dissolution) [5]: –87.99 J·mol^–1·K^–1
Ideal mole fraction solubility (x3^id) ([6]; T=293.15 K): 2.607 × 10^–3 mole fraction
Ideal mole fraction solubility (x3^id) ([6]; T=298.15 K): 3.079 × 10^–3 mole fraction
Ideal mole fraction solubility (x3^id) ([6]; T=303.15 K): 3.627 × 10^–3 mole fraction
Ideal mole fraction solubility (x3^id) ([6]; T=308.15 K): 4.260 × 10^–3 mole fraction
Ideal mole fraction solubility (x3^id) ([6]; T=313.15 K): 4.991 × 10^–3 mole fraction
TΔsolnS° ([6]; ideal, Thm=303.0 K): 10.61 kJ·mol^–1
ΔsolnG° (apparent Gibbs energy of dissolution) ([6]; ideal, Thm=303.0 K): 14.16 kJ·mol^–1
ΔsolnH° (apparent enthalpy of dissolution) ([6]; ideal, Thm=303.0 K): 24.78 kJ·mol^–1
ΔsolnS° (apparent entropy of dissolution) ([6]; ideal, Thm=303.0 K): 35.03 J·mol^–1·K^–1
Experimental molar solubility (C) ([8]; T=293.15 K): 6.027 × 10^–5 mol·dm^–3
Experimental mole fraction solubility (x3) ([8]; T=293.15 K): 1.088 × 10^–6 mole fraction
Experimental molar solubility (C) ([8]; T=298.15 K): 6.290 × 10^–5 mol·dm^–3
Experimental mole fraction solubility (x3) ([8]; T=298.15 K): 1.137 × 10^–6 mole fraction
Experimental molar solubility (C) ([8]; T=303.15 K): 6.557 × 10^–5 mol·dm^–3
Experimental mole fraction solubility (x3) ([8]; T=303.15 K): 1.187 × 10^–6 mole fraction
Experimental molar solubility (C) ([8]; T=308.15 K): 6.962 × 10^–5 mol·dm^–3
Experimental mole fraction solubility (x3) ([8]; T=308.15 K): 1.262 × 10^–6 mole fraction
Experimental mole fraction solubility (x3) ([8]; T=313.15 K): 1.329 × 10^–6 mole fraction
Hildebrand solubility parameter δ3 [9]: 32.1 MPa^1/2
